What was measured:
[1] = tested on: intracellular ROS; test: Intracellular ROS (DCFH-DA, CLSM) in HT1080 cells; type: cell-based, human; details: 1 µM, 24 h
Protocol: To assess the total intracellular levels of reactive oxygen species (ROS), a DCFH‐DA (Dichloro‐dihydro‐fluorescein diacetate) assay kit was utilized. Briefly, HT1080 cells were seeded into confocal laser culture dishes and allowed to adhere for 24 h. Afterward, the cells were treated with GDAz‐3 at a concentration of 1 µM for 24 h. Subsequently, a DCFH‐DA probe was added to the cells and they were incubated for 20 min. After washing twice with PBS, the cells were visualized and imaged using a confocal laser scanning microscopy (CLSM).

[2] = biological target: T1, GPX1 (Homo sapiens, UniProt P07203); test: Western blot of GPX1 in HT1080 cells; type: cell-based; details: 24 h
T1 construct: endogenous in cells; host or cells: HT1080
T1 sequence (P07203 1-203): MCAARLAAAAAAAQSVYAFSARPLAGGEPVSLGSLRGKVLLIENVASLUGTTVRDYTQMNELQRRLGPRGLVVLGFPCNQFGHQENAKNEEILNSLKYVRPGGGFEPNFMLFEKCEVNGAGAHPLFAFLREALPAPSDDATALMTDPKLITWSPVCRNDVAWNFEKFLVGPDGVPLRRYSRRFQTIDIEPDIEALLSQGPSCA

[3] = biological target: T2, GPX4 (Mus musculus, UniProt O70325); test: GPX4 degradation by western blot in B16-F10 cells; type: cell-based; details: 3 µM, 24 h
T2 construct: endogenous in cells; host or cells: B16-F10
T2 sequence (O70325 1-170 isoform O70325-2): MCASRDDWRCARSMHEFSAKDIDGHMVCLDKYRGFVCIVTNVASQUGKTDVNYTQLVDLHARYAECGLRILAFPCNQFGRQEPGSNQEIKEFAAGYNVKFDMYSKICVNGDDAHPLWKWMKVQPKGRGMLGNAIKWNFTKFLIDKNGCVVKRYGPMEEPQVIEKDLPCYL
Protocol: (§1) To further confirm this degradation efficacy, an in‐cell western (ICW) assay, a quantitative immunofluorescence cell‐based technique, was performed to quantify the relative expression level of GPX4 after treatment with GDAz‐3 for 24 h. […] Given the promising GPX4 degradation activity of GDAz‐3, we extended our evaluation to additional ferroptosis‐sensitive cell lines, including triple‐negative breast cancer cells (MDA‐MB‐231) and melanoma cells (mouse B16‐F10). […] Based on the observation that GDAz‐3 was particularly effective in HT1080 cells, we selected this cell line for further degradation mechanism and ferroptosis pharmacodynamics studies.
Cells were seeded at a density of 4 × 10^5 cells well^−1 in 6‐well plates and allowed to incubate overnight. Cells were incubated with the indicated treatments. Thereafter, the cells were collected and lysed with RIPA buffer containing serine protease and phosphatase inhibitors for 30 min on ice. Proteins were quantified by using a BCA protein assay kit (Beyotime). […] Ultimately, the membrane was washed five times, and the antibody‐protein complexes were visualized using an ECL luminescence reagent (Biosharp, Shanghai, China). The relative intensities of the bands were analyzed by ImageJ and normalized to a loading control.

[4] = tested on: intracellular LPO; test: Intracellular LPO (C11-BODIPY 581/591, flow cytometry) in HT1080 cells; type: cell-based, human; details: 12 h
Protocol: The level of LPO was determined by flow cytometry using the C11‐BODIPY^581/591 dye. In short, HT1080 cells were incubated in 6‐well plates at a density of 5 × 10^4 cells per well for 24 h. After that, the culture medium was substituted with a fresh medium containing GDAz‐3, ML162, or a mixture of GDAz‐3 and Fer‐1 at the specified concentrations. Following a 12‐h incubation period, HT1080 cells were stained with C11‐BODIPY^581/591 dye for 10 min. Finally, the cell samples were collected, washed twice with phosphate‐buffered saline (PBS), and then analyzed by flow cytometry.

[5] = biological target: T3, GPX4 (Homo sapiens, UniProt P36969); test: In-cell western (ICW) GPX4 degradation in HT1080 cells; type: cell-based; parameters: determine the changes in the endogenous levels of GPX4 by western blot assay; endogenous in cells; host or cells: HT1080 fibrosarcoma cells, including siRNA-knockdown derivatives; details: 24 h
T3 sequence (P36969 1-170 isoform P36969-2): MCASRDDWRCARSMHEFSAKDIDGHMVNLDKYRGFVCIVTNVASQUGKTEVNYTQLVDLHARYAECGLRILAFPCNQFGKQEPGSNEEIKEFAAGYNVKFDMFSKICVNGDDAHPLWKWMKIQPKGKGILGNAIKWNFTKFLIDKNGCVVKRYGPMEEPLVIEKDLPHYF
Protocol: as §1
HT1080 cells were seeded into 96‐well plates at a density of 1 × 10⁴ cells per well and cultured overnight. After 24‐h treatment with the drugs, the culture medium was removed, and 150 µL of 4% paraformaldehyde was added to each well to fix the cells at 4 °C for 20 min. The paraformaldehyde was removed, and 150 µL of 0.2% Triton X‐100 was added to each well. The cells were permeabilized by shaking at room temperature for 30 min. After removing the Triton X‐100, 50 µL of 1% BSA buffer was added to each well, and shaken at room temperature for 90 min. […] The PBS was discarded, and the plates were read using a Typhoon biomolecular imager (Cytiva, GPX4: wavelength 680 nm; GAPDH: 800 nm).

COc1ccc(-c2nc(-c3cc(C(F)(F)F)cc(C(F)(F)F)c3)n(Cc3ccc(C(=O)NCCOCCOCCOCCn4cc(COc5ccc(N(C(=O)CCl)C(C(=O)NCCc6ccccc6)c6cccs6)cc5Cl)nn4)cc3)c2-c2ccc(OC)cc2)cc1 (centres unmarked) [GDAz-3, 4-((2-(3,5-bis(trifluoromethyl)phenyl)-4,5-bis(4-methoxyphenyl)-1H-imidazol-1-yl)methyl)-N-(2-(2-(2-(2-(4-((2-chloro-4-(2-chloro-N-(2-oxo-2-(phenethylamino)-1-(thiophen-2-yl)ethyl)acetamido)phenoxy)methyl)-1H-1,2,3-triazol-1-yl)ethoxy)ethoxy)ethoxy)ethyl)benzamide]
Level of intracellular ROS [1]: enhanced
Effect on GPX1 protein [2]: did not show a significant effect
GPX4 level [3]: markedly decreased GPX4 level
Fluorescence intensity of C11-BODIPY 581/591 (lipid peroxidation) [4]: markedly enhanced
DC50 [5]: 250 nM
